Assay results: article PMC5108082, “Pharmacokinetics, toxicity, and cytochrome P450 modulatory activity of plumbagin” (BMC Pharmacology & Toxicology, 2016)

Legend:
CYP2C19 = details: cited from earlier work
CYP3A11 = details: mouse, in vivo, po
Method: Mice were divided into four groups (3 male mice each). Mice in the treated groups were fed with plumbagin at a daily oral dose of 25, 12.5, or 6.25 mg/kg body weight (1 mL) for 28 days. The control group received a daily oral dose (1 mL) of 20 % Tween-80 for 28 days. At the end of the experiment period, all animals were sacrificed under ether anesthesia and livers were removed for investigation of the modulatory effect of plumbagin on hepatic CYP1A2 and CYP3A11.
The liver samples were rinsed with ice-cold, 0.9 %NaCl, homogenized in 50 mM sodium phosphate buffer (pH 7.4) containing 0.1 mM EDTA, and centrifuged at 9000 × g for 20 min. […] Protein concentrations were determined by Bradford protein assay and the suspended microsomes were aliquoted and stored at −80 °C until use. […]
The incubation mixture of 500 μL containing the selective substrate (20 μM phenacetin and 40 μm nifedipine for CYP1A2 and CYP3A11, respectively), mice liver microsomes (in 100 mM phosphate buffer pH 7.4) was pre-incubated at 37 °C for 5 min in a shaking water bath. […] Concentrations of paracetamol (metabolite of CYP1A2) and oxidized nifedipine (metabolite of CYP3A11) in the incubation mixtures were determined using HPLC with UV detection. […]

CC1=CC(=O)c2c(O)cccc2C1=O [plumbagin, 5-hydroxy-2-methyl-1,4-naphthoquinone]
IC50 (CYP2C19): 780 nM
trend of CYP3A11 mRNA expression and enzyme activity (CYP3A11): a trend of reduction
